Results taken from ChEMBL document CHEMBL5608182, “Synthesis and evaluation of neuroactive steroids with novel pharmacophore at C-21 let identify a compound with advantageous PK profile and higher EC50 and Emax as PAM on GABAA receptor” (Eur J Med Chem, 2024).

Columns and labels:
[1] = Metabolic stability in human liver microsomes assessed as intrinsic clearance at 1 uM preincubated for 10 mins followed by NADPH addition by LC-MS analysis; assay type: ADME, Microsome; conditions: read-out: CLH
[2] = Apparent volume of distribution in male Sprague-Dawley rat at 24.4 micromol/kg, IG administered as single dose and measured upto 24 hrs by LC-MS/MS analysis; assay type: ADME; conditions: in vivo, po, dose 24.4 µmol/kg
[3] = Apparent volume of distribution in male Sprague-Dawley rat at 6.1 micromol/kg, iv administered as single dose and measured upto 24 hrs by LC-MS/MS analysis; assay type: ADME, organism-based; conditions: in vivo, dose 6.1 µmol/kg, read-out: Vz
Rattus norvegicus [4] = assay: Antiseizure activity in PTZ-induced male Sprague-Dawley rat acute seizure model assessed as increase in latency to tonic seizures at 12.2 micromol/kg, po pretreated for 1 hr followed by PTZ addition and measured after 60 mins (reference value: 77 +/- 13.4 sec); assay type: functional; conditions: dose 12.2 µmol/kg, time 120 min, 2 h
Cytochrome P450 2D6 = Cytochrome P450 2D6 (Homo sapiens, UniProt P10635); assay: Inhibition of CYP2D6 (unknown origin); assay type: ADME
Chain of Cytochrome P450 2D6 (P10635 whole entry): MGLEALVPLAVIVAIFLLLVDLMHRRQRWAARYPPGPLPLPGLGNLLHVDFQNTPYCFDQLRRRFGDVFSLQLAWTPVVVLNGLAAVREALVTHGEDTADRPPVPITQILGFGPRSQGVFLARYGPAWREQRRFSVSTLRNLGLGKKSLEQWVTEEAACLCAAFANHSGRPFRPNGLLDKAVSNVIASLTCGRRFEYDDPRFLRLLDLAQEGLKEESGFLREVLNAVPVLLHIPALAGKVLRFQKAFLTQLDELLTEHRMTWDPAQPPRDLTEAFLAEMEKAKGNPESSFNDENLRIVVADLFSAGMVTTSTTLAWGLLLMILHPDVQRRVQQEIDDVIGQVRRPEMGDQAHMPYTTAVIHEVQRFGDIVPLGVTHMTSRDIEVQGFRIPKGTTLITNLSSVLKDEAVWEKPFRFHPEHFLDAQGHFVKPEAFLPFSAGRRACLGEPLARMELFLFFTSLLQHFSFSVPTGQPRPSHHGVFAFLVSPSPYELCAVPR

[5] = Metabolic stability in Sprague-Dawley rat liver microsomes assessed as compound remaining at 1 uM preincubated for 10 mins followed by NADPH addition by LC-MS analysis; assay type: ADME, Microsome; conditions: read-out: Stability
[6] = Cmax in male Sprague-Dawley rat at 24.4 micromol/kg, IG administered as single dose and measured upto 24 hrs by LC-MS/MS analysis; assay type: ADME; conditions: in vivo, po, dose 24.4 µmol/kg
[7] = biological target: GABA-A receptor; anion channel; assay: Inhibition of [35S]TBPS binding to GABA-A receptor in Sprague-Dawley rat brain cortical membrane incubated for 90 mins by liquid scintillation spectrometry; assay type: cell membranes, Cortex
[8] = biological target: T1, GABA-A receptor; alpha-1/beta-2/gamma-2 (Homo sapiens, UniProt P14867+P18507+P47870); assay: Positive allosteric modulation of synaptic alpha1beta2gamma2 GABA-A receptor (unknown origin) transfected in LTK cells assessed as potentiation of GABA-induced peak current amplitude at -80 mV holding potential preincubated for 30 secs followed by GABA stimulation for 2 secs by Q-patch assay; assay type: cell-based
T1 sequence (P14867 whole entry): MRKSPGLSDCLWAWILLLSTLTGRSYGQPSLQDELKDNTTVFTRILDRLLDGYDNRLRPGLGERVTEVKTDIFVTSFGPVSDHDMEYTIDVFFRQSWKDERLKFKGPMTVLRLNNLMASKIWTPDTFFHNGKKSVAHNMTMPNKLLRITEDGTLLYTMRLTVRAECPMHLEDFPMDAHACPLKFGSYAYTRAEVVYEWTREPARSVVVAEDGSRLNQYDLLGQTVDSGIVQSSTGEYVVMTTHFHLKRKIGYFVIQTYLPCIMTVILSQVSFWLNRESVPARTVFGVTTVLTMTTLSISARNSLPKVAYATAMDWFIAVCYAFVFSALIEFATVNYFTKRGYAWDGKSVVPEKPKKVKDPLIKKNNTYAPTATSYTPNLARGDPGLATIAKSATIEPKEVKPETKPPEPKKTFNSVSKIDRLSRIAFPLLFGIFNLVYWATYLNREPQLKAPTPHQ
T1 sequence (P47870 whole entry): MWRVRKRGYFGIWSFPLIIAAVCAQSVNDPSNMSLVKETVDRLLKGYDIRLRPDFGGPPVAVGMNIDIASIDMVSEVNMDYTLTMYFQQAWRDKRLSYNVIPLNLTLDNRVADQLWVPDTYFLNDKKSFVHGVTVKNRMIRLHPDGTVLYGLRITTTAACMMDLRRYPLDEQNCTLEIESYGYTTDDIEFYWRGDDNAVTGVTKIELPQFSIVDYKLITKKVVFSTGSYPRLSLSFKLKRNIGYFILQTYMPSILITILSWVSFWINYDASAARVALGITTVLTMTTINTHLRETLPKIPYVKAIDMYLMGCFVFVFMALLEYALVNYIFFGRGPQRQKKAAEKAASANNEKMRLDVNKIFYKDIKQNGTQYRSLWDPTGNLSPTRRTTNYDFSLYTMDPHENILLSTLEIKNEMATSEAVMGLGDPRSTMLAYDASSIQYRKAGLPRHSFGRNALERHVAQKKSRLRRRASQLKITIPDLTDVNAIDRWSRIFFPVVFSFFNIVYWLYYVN
T1 sequence (P18507 whole entry): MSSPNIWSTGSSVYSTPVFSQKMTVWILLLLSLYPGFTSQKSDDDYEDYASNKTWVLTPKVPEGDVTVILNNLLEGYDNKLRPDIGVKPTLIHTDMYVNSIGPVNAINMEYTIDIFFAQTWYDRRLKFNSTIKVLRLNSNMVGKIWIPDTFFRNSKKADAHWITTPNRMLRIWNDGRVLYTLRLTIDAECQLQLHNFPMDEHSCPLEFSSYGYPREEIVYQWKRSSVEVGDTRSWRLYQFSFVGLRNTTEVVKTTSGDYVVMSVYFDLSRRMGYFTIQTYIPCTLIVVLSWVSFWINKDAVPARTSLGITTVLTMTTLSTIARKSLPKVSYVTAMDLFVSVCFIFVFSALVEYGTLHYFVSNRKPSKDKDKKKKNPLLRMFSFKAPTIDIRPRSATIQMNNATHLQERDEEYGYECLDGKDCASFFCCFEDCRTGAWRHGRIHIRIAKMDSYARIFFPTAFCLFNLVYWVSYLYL

[9] = AUClast in male Sprague-Dawley rat at 24.4 micromol/kg, IG administered as single dose and measured upto 24 hrs by LC-MS/MS analysis; assay type: ADME; conditions: in vivo, po, dose 24.4 µmol/kg
[10] = MRTlast in male Sprague-Dawley rat at 6.1 micromol/kg, iv administered as single dose and measured upto 24 hrs by LC-MS/MS analysis; assay type: ADME, organism-based; conditions: in vivo, dose 6.1 µmol/kg
Rattus norvegicus [11] = assay: Antiseizure activity in PTZ-induced male Sprague-Dawley rat acute seizure model assessed as increase in latency to tonic seizures at 24.4 micromol/kg, po pretreated for 1 hr followed by PTZ addition and measured after 60 mins (reference value: 77 +/- 13.4 sec); assay type: functional; conditions: dose 24.4 µmol/kg, time 120 min, 2 h
[12] = Drug concentration in Sprague-Dawley rat brain at 24.4 micromol/kg, IG measured after 6 hrs by LC-MS/MS analysis; assay type: ADME, tissue-based; conditions: in vivo, po, dose 24.4 µmol/kg
[13] = Toxicity in male Sprague-Dawley rat assessed as loss of righting reflex at 7.8 micromol/kg, ip measured within 4 hrs; assay type: organism-based; conditions: in vivo, dose 7.8 µmol/kg
[14] = Genotoxicity in Salmonella typhimurium TA100 assessed as induction of reverse mutation in absence of rat liver S9 fraction; assay type: toxicity; conditions: salmonella enterica subsp. enterica serovar typhimurium
[15] = Genotoxicity in Salmonella typhimurium TA98 assessed as induction of reverse mutation in absence of rat liver S9 fraction; assay type: toxicity; conditions: salmonella enterica subsp. enterica serovar typhimurium
[16] = Toxicity in male Sprague-Dawley rat assessed as loss of righting reflex at 23.3 micromol/kg, ip measured within 4 hrs; assay type: organism-based; conditions: in vivo, dose 23.3 µmol/kg
[17] = Genotoxicity in Salmonella typhimurium TA102 assessed as induction of reverse mutation in absence of rat liver S9 fraction; assay type: toxicity; conditions: salmonella enterica subsp. enterica serovar typhimurium
[18] = Genotoxicity in Salmonella typhimurium TA98 assessed as induction of reverse mutation in presence of rat liver S9 fraction; assay type: toxicity, subcellular; conditions: salmonella enterica subsp. enterica serovar typhimurium
[19] = Genotoxicity in Salmonella typhimurium TA102 assessed as induction of reverse mutation in presence of rat liver S9 fraction; assay type: toxicity, subcellular; conditions: salmonella enterica subsp. enterica serovar typhimurium

Row | Structure (SMILES) | CLint scaled at 1 µM [1] | Vz [2] | Vd [3] | Time (Rattus norvegicus [4]) | IC50 (Cytochrome P450 2D6) | remaining at 1 µM [5] | Cmax [6] | IC50 [7] | EC50 [8] | AUC(0-t) at 24 h [9] | MRT last at 24 h [10] | Time (Rattus norvegicus [11]) | Ct [12] | Activity [13] | Activity [14] | Activity [15] | Activity [16] | Activity [17] | Activity [18] | Activity [19]
1 | C[C@@]1(O)CC[C@H]2[C@H](CC[C@@H]3[C@@H]2CC[C@]2(C)[C@@H](C(=O)Cn4cc(C#N)cn4)CC[C@@H]32)C1 [ZURANOLONE] | 10.6 mL/min/kg | 10.54 L/kg | 4.66 L/kg | 1639 s | > 30 µM | 40% | 2290 nM | 7 nM | 152 nM | 12 µM·h | 2.12 h | 2850 s | 193 nmol/kg | Non-Toxic |  |  |  |  |  | 
2 | C[C@@]1(O)CC[C@H]2[C@H](CC[C@@H]3[C@@H]2CC[C@]2(C)[C@@H](C(=O)Cn4cnn(-c5cc(F)nc(F)c5)c4=O)CC[C@@H]32)C1 | < 6.75 mL/min/kg | 8.86 L/kg | 7.38 L/kg |  | > 30 µM | 68% | 2530 nM |  | 141 nM | 24 µM·h | 4.75 h |  | 2339 nmol/kg |  | Non-Toxic | Non-Toxic | Non-Toxic | Non-Toxic | Non-Toxic | Non-Toxic
